Molecular target: T1, MAdCAM-1/α4β7 integrin (Homo sapiens, UniProt P13612+P26010)
T1 construct: a human B-cell line known to express α4β7 integrin; endogenous in cells; host or cells: RPMI-8866 (human B-cell line)
T1 sequence (P13612 34-1032): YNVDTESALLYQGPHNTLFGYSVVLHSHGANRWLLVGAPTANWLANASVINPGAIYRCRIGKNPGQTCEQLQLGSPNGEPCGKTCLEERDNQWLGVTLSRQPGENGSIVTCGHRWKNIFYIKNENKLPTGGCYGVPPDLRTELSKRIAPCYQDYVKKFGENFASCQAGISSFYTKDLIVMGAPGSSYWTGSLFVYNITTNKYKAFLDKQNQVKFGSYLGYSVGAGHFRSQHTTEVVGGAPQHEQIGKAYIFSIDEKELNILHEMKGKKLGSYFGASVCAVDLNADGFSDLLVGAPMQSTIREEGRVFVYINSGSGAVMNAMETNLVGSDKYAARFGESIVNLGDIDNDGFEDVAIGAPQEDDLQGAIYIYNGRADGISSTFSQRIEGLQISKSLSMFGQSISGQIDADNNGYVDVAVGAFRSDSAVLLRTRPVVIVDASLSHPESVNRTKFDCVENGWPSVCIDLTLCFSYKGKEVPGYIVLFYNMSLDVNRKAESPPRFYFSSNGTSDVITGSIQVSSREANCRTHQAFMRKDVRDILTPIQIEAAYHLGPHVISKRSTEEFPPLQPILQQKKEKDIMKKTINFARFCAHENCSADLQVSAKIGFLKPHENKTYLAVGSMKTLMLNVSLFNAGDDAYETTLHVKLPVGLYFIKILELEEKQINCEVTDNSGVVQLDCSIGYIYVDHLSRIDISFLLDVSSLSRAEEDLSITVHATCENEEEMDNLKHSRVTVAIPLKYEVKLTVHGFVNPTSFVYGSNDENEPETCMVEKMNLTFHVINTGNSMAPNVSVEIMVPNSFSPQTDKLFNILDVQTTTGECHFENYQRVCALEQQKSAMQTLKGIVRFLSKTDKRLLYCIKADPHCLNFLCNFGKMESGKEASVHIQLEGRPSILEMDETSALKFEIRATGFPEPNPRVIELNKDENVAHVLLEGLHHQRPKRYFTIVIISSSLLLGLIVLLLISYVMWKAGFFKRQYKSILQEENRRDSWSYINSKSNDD
T1 sequence (P26010 20-798): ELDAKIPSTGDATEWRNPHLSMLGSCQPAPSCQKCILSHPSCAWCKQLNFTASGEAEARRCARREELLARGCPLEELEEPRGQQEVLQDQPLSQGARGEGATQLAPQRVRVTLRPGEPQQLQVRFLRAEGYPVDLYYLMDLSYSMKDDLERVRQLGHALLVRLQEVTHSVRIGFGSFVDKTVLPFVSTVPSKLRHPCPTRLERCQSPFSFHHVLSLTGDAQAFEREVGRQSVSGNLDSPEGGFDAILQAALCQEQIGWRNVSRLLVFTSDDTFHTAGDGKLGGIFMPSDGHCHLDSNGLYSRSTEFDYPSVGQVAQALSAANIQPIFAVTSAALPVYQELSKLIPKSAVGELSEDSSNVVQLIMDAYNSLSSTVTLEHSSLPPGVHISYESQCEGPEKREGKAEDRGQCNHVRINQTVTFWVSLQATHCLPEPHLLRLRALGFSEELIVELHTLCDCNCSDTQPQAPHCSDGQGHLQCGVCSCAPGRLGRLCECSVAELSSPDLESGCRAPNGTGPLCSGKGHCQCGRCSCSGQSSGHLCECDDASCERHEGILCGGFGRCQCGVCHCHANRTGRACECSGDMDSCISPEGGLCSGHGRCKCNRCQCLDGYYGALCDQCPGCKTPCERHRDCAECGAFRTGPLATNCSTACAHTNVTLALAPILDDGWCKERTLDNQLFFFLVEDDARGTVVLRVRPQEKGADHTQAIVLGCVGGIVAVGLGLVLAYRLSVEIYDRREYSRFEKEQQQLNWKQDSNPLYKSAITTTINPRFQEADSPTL
Test: Evaluation test (1) for MAdCAM-1/α4β7 integrin binding inhibitory activity in the presence of serum (RPMI-8866 cell binding to MAdCAM-1/Fc)
Assay type: cell-based
Conditions: RPMI-8866 cells, recombinant mouse MAdCAM-1/Fc, human serum at final concentration of 50%; read-out: α4β7 Serum Activity rank when α4β7 serum was added
Procedure: The selectivity was determined by dividing the IC50 value in the evaluation test for VCAM-1/α4β1 integrin binding inhibitory activity by the IC50 value in the evaluation test for MAdCAM-1/α4β7 integrin binding inhibitory activity. • (3) Evaluation Test (1) for MAdCAM-1/α4β7 Integrin Binding Inhibitory Activity in the Presence of Serum
The ability of test substances to inhibit the binding of RPMI-8866 cell line, a human B-cell line known to express α4β7 integrin, to MAdCAM-1 was examined.
A 96-well microtiter plate was coated overnight at 4° C. with a recombinant mouse MAdCAM-1/Fc (R&D systems) solution diluted with the buffer A (carbonate buffer, pH 9.6). After washing once with PBS, 150 μL/well of Block Ace (manufactured by Snow Brand Milk Products Co., Ltd.) was added, and it was incubated at room temperature for 2 hours. After removal, it was washed once with PBS.
100 μL of each of test substances and RPMI-8866 cells diluted with a binding buffer solution (DMEM containing 40 mM HEPES, 0.2% BSA, and 4 mM MnCl2) to various concentrations was added to the plate coated with MAdCAM-1/Fc, so that human serum was contained at a final concentration of 50%, and it was incubated at 30° C. for 15 minutes to 60 minutes. After the cells were bound to the wells, unbound cells were removed by washing with PBS. 50 μL/well of the buffer solution C (PBS containing 1.5% Triton X-100) was added to the plate to dissolve the bound RPMI-8866 cells. 30 μL of substrate buffer (Promega, CytoTox 96 Non-Radioactive Cytotoxicity Assay) was added to 30 μL of a cell lysate to allow a reaction for 30 minutes at room temperature in a dark place. 30 μL of stop solution (Promega, CytoTox 96 Non-Radioactive Cytotoxicity Assay) was added thereto to determine the absorbance at 490 nm using a plate reader. The absorbance was obtained herein by detecting the activity of lactate dehydrogenase (LDH) eluted in a supernatant of each well, that is, the absorbance is proportional to the number of RPMI-8866 cells remaining on the plate by being bound to MAdCAM-1. The test was duplicated, and the cell binding rate at various concentrations with the absorbance of the well containing no test substance being taken as 100% was determined, to calculate the concentration IC50 at which 50% of binding was inhibited.

| IC50 [µM] | SMILES |
| --- | --- |
| > 0.2 | COc1cc2c(=O)n(-c3ccc(C[C@H](NC(=O)c4cc(F)c(NS(=O)(=O)c5ccc(-c6cnc(COC(C)C)nc6)cc5)cc4F)C(=O)O)nc3)c(=O)n(C)c2cn1 [Example 41, (2S)-2-[[2,5-Difluoro-4-[[4-[2-(isopropoxymethyl)pyrimidin-5-yl]phenyl]sulfonylamino]benzoyl]amino]-3-[5-(6-methoxy-1-methyl-2,4-dioxo-pyrido[3,4-d]pyrimidin-3-yl)-2-pyridyl]propanoic acid] |
| 0.01 to 0.05 | CNCc1ccc2c(c1)c(=O)n(-c1ccc(C[C@H](NC(=O)c3cc(F)c(NS(=O)(=O)c4ccc(-c5cnc(COC)nc5)cc4)cc3F)C(=O)O)cc1)c(=O)n2C [Example 39, (2S)-2-[[2,5-Difluoro-4-[[4-[2-(methoxymethyl)pyrimidin-5-yl]phenyl]sulfonylamino]benzoyl]amino]-3-[4-[1-methyl-6-(methylaminomethyl)-2,4-dioxo-quinazolin-3-yl]phenyl]propanoic acid] |
| 0.01 to 0.05 | Cc1c(-c2ccc(C[C@H](NC(=O)c3c(F)cc(NS(=O)(=O)c4ccc(C(=O)NC5CC5)cc4)cc3F)C(=O)O)cc2)c(=O)n(C)c(=O)n1C [Example 47] |
| 0.05 to 0.2 | Cc1c(-c2ccc(C[C@H](NC(=O)c3cc(F)c(NS(=O)(=O)c4ccc(-c5cnc(COC(C)C)nc5)cc4)cc3F)C(=O)O)cc2)c(=O)n(C)c(=O)n1C [Example 40, (2S)-2-[[2,5-Difluoro-4-[[4-[2-(isopropoxymethyl)pyrimidin-5-yl]phenyl]sulfonylamino]benzoyl]amino]-3-[4-(1,3,4-trimethyl-2,6-dioxo-pyrimidin-5-yl)phenyl]propanoic acid] |
| > 0.2 | Cc1c(-c2ccc(C[C@H](NC(=O)c3cc(F)c(NS(=O)(=O)c4ccc(C5CCOCC5)cc4)cc3F)C(=O)O)cc2)c(=O)n(C)c(=O)n1C [Example 87, (2S)-2-[[2,5-Difluoro-4-[(4-tetrahydropyran-4-ylphenyl)sulfonylamino]benzoyl]amino]-3-[4-(1,3,4-trimethyl-2,6-dioxopyrimidin-5-yl)phenyl]propanoic acid] |
| 0.01 to 0.05 | CCc1ncc(-c2ccc(S(=O)(=O)Nc3c(F)c(F)c(C(=O)N[C@@H](Cc4ccc(-c5c(C)n(C)c(=O)n(C)c5=O)cc4)C(=O)O)c(F)c3F)cc2)cn1 [Example 45, (2S)-2-[[4-[[4-(2-Ethylpyrimidin-5-yl)phenyl]sulfonylamino]-2,3,5,6-tetrafluoro-benzoyl]amino]-3-[4-(1,3,4-trimethyl-2,6-dioxo-pyrimidin-5-yl)phenyl]propanoic acid] |
| 0.01 to 0.05 | Cn1c(=O)n(-c2ccc(C[C@H](NC(=O)c3cc(F)c(NS(=O)(=O)c4ccc(-c5ccnc(C6CCOCC6)c5)cn4)cc3F)C(=O)O)nc2)c(=O)c2ccncc21 [Example 34, (2S)-2-[[2,5-Difluoro-4-[[5-(2-tetrahydropyran-4-yl-4-pyridyl)-2-pyridyl]sulfonylamino]benzoyl]amino]-3-[5-(1-methyl-2,4-dioxo-pyrido[3,4-d]pyrimidin-3-yl)-2-pyridyl]propanoic acid] |
| > 0.2 | Cc1cc(-c2ccccn2)ccc1S(=O)(=O)Nc1ccc(C(=O)N[C@@H](Cc2ccc(-c3c(C)n(C)c(=O)n(C)c3=O)cc2)C(=O)O)c(F)c1 [Example 46, (2S)-2-[[2-Fluoro-4-[[2-methyl-4-(2-pyridyl)phenyl]sulfonylamino]benzoyl]amino]-3-[4-(1,3,4-trimethyl-2,6-dioxo-pyrimidin-5-yl)phenyl]propanoic acid] |
| 0.01 to 0.05 | CN(C)CCc1ncc(-c2ccc(S(=O)(=O)Nc3cc(F)c(C(=O)N[C@@H](Cc4ccc(-n5c(=O)c6ccncc6n(C)c5=O)cn4)C(=O)O)cc3F)cc2)cn1 [Example 33, (2S)-2-[[4-[[4-[2-(2-Dimethylaminoethyl)pyrimidin-5-yl]phenyl]sulfonylamino]-2,5-difluoro-benzoyl]amino]-3-[5-(1-methyl-2,4-dioxo-pyrido[3,4-d]pyrimidin-3-yl)-2-pyridyl]propanoic acid] |
| 0.05 to 0.2 | Cc1c(-c2ccc(C[C@H](NC(=O)c3cc(F)c(NS(=O)(=O)c4ccc(-c5cnc(C(C)C)nc5)cc4)cc3F)C(=O)O)cc2)c(=O)n(C)c(=O)n1C [Example 88] |
| 0.01 to 0.05 | Cn1c(=O)n(-c2ccc(C[C@H](NC(=O)c3cc(F)c(NS(=O)(=O)c4ccc(-c5cnc(C6CCNCC6)nc5)cc4)cc3F)C(=O)O)nc2)c(=O)c2ccncc21 [Example 26, (2S)-2-[[2,5-Difluoro-4-[[4-[2-(4-piperidyl)pyrimidin-5-yl]phenyl]sulfonylamino]benzoyl]amino]-3-[5-(1-methyl-2,4-dioxo-pyrido[3,4-d]pyrimidin-3-yl)-2-pyridyl]propanoic acid] |
| 0.01 to 0.05 | Cc1c(-c2ccc(C[C@H](NC(=O)c3cc(F)c(NS(=O)(=O)c4ccc(-c5cnc(C6CCOCC6)nc5)cc4)cc3F)C(=O)O)cc2)c(=O)n(C)c(=O)n1C [Example 86, (2S)-2-[[2,5-Difluoro-4-[[4-(2-tetrahydropyran-4-ylpyrimidin-5-yl)phenyl]sulfonylamino]benzoyl]amino]-3-[4-(1,3,4-trimethyl-2,6-dioxopyrimidin-5-yl)phenyl]propanoic acid] |
| 0.05 to 0.2 | CC(C)OCc1ncc(-c2ccc(S(=O)(=O)Nc3cc(F)c(C(=O)N[C@@H](Cc4ccc(-n5c(=O)ccn(C)c5=O)cc4)C(=O)O)cc3F)cc2)cn1 [Example 42, (2S)-2-[[2,5-Difluoro-4-[[4-[2-(isopropoxymethyl)pyrimidin-5-yl]phenyl]sulfonylamino]benzoyl]amino]-3-[4-(3-methyl-2,6-dioxo-pyrimidin-1-yl)phenyl]propanoic acid] |

Source: patent publication US9822110B2, “Sulfonamide derivative and pharmaceutical use thereof” (EA Pharma Co., Ltd., priority 2013, dated 2017)
